The values below come from patent publication US20250354111A1, “BOVINE SEX-SORTED SPERM SORTING SOLUTION MEDIATED BY SMALL MOLECULE COMPOUND AND ITS APPLICATION” (Inner Mongolia University, priority 2024, published 2025).

In the test the test system is bovine sperm. Briefly: Effect of creatine concentration on sorting of X and Y sperm in sorting solution with 24e drug (Example 2). Type of test: cell-based. As to conditions: creatine 500 μM with 24e drug 0.3 μM; 37° C., 60 min; 6x107 sperm/mL. The procedure: Based on the exploration in Example 1 that the range of 0.27 μM-0.33 μM is the optimal concentration range for the 24e drug to sort bovine sperm, the effect of creatine on the sperm sorting effect was examined by incubating bovine sperm with creatine added to the sorting solution with a 24e drug concentration of 0.3 μM.
Fresh bovine semen provided by the Grassland Livestock Germplasm Innovation and Breeding Base of Inner Mongolia University was used, washed with in vitro fertilization solution, and after dilution, the sperm density was 6x107 sperm/mL. At 37° C., the 24e drug was added to the sperm sorting protection solution to make the final concentration of the 24e drug 0.3 μM. On this basis, creatine was added, and bovine sperm was incubated for 60 min. The amounts of creatine used were 0 μM (control group), 200 μM, 300 μM, 400 μM, 500 µM, and 600 μM. The sorting effect of sperm at each creatine concentration was obtained by analyzing the sperm in the upper and lower layers, as shown in FIG. 2. […] In the upper layer of sperm, the percentage of X sperm is 22%, and the percentage of Y sperm is 78%. Creatine can enhance the activity of sperm, so that Y sperm floats up faster, while the activity of X sperm is inhibited by the 24e drug and sinks, making the stratification more obvious and improving the sorting efficiency. When the sperm density is 6x10^7 sperm/mL, the concentration of the 24e drug is 0.27 μM-0.33 μM, and the creatine concentration is 500 μM-600 μM, the sorting effect on bovine sperm is the best.

SMILES strings stand for the structures.

As to `CN(CC(=O)O)C(=N)N` [creatine], the “percentage of X sperm in the lower layer of sorted sperm” value amounted to 70.33%, the “percentage of X sperm in the upper layer of sperm” value was 22%, the “percentage of Y sperm in the lower layer of sorted sperm” value came out at 29.67% and the “percentage of Y sperm in the upper layer of sperm” value turned out to be 78%.
